Experimental data published in ChEMBL document CHEMBL1201862, “PubChem BioAssay data set” (2004).
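The compound was tested at five concentrations on cells cultured in 96-well plates, with a 48-hour exposure period. At the GI50, growth is halved.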 Activity calls are given as the source filed them. Cut-off read from the data, not from the text of the source: active = GI50 up to about 1.1 µM and inactive = higher.

Tests used:
Assay in all cases: NCI-60 cell line screen, 48 h
HCT-15 = system: HCT-15
IGROV-1 = system: IGROV-1
HL-60 = system: HL-60
OVCAR-5 = system: OVCAR-5
NCI-H460 = system: NCI-H460
OVCAR-3 = system: OVCAR-3
NCI-H23 = system: NCI-H23
SR = system: SR
K562 = system: K562
HCT-116 = system: HCT-116
786-0 = system: 786-0
UO-31 = system: UO-31
SK-MEL-5 = system: SK-MEL-5
HOP-18 = system: HOP-18
Malme-3M = system: Malme-3M
SK-MEL-2 = system: SK-MEL-2
MDA-MB-435 = system: MDA-MB-435
MDA-N = system: MDA-N
MCF7 = system: MCF7
PC-3 = system: PC-3

Row | Structure (SMILES) | GI50 (HCT-15) [µM] | GI50 (IGROV-1) | GI50 (HL-60) | GI50 (OVCAR-5) | GI50 (NCI-H460) | GI50 (OVCAR-3) | GI50 (NCI-H23) | GI50 (SR) | GI50 (K562) | GI50 (HCT-116) | GI50 (786-0) | GI50 (UO-31) | GI50 (SK-MEL-5) | GI50 (HOP-18) | GI50 (Malme-3M) | GI50 (SK-MEL-2) | GI50 (MDA-MB-435) | GI50 (MDA-N) | GI50 (MCF7) | GI50 (PC-3)
1 | O=C(O)CSc1ccc2nc3ccccc3c(O)c2c1 | > 100 | > 100 µM (inactive) | > 100 µM (inactive) | > 100 µM (inactive) | > 100 µM (inactive) | > 100 µM (inactive) | > 100 µM (inactive) | > 100 µM (inactive) | > 100 µM (inactive) | > 100 µM (inactive) | > 100 µM (inactive) | > 100 µM (inactive) | > 100 µM (inactive) | > 100 µM (inactive) | > 100 µM (inactive) |  |  |  |  | 
2 | O=C(/C=C/c1c(O)ccc2ccccc12)c1cccc2ccccc12 | > 58.7 | > 100 µM (inactive) | > 43.8 µM (inactive) | > 100 µM (inactive) | > 100 µM (inactive) | > 100 µM (inactive) | > 100 µM (inactive) | 36 µM (inactive) | 51.5 µM (inactive) | 57.7 µM (inactive) | > 69.7 µM (inactive) | 34 µM (inactive) | > 100 µM (inactive) | 58.6 µM (inactive) | > 87.5 µM (inactive) | > 95.1 µM (inactive) |  |  |  | 
3 | CC1=C[C@]2(O)C(=O)[C@H](C)C[C@H]3[C@@H](CC[C@@](C)(O)/C=C\2C1=O)C3(C)C | 17 | 23.4 µM (inactive) | > 100 µM (inactive) | > 76.7 µM (inactive) | 25.5 µM (inactive) | 19.7 µM (inactive) | 25.6 µM (inactive) | 16 µM (inactive) | > 100 µM (inactive) | 17.2 µM (inactive) | 18.9 µM (inactive) | 62.5 µM (inactive) | 21.6 µM (inactive) | 44.9 µM (inactive) | 22.8 µM (inactive) | 17.9 µM (inactive) |  |  |  | 
4 | COc1cccc2c1C(=O)c1c(O)c3c(c(O)c1C2=O)C[C@@](O)(C(C)=O)CC3S(=O)(=O)O (stereo partly specified) | > 100 | > 100 µM (inactive) | > 100 µM (inactive) | > 100 µM (inactive) | > 100 µM (inactive) | > 100 µM (inactive) | > 100 µM (inactive) | > 84.1 µM (inactive) | > 100 µM (inactive) | > 100 µM (inactive) | > 100 µM (inactive) | > 100 µM (inactive) | > 100 µM (inactive) | > 100 µM (inactive) | > 100 µM (inactive) | > 100 µM (inactive) |  |  |  | 
5 | CCCCCCCCCCCCCCCCCCC1=C(O)C(=O)C=C(OC)C1=O | 29.5 | 38.8 µM (inactive) | 22.5 µM (inactive) | 39.5 µM (inactive) | 88.7 µM (inactive) | 41.8 µM (inactive) | 26 µM (inactive) | 43.8 µM (inactive) |  | 43.7 µM (inactive) | 34.3 µM (inactive) | 85.5 µM (inactive) | 40 µM (inactive) | 43 µM (inactive) | 64.9 µM (inactive) | 26.5 µM (inactive) |  |  |  | 
6 | CC1=NN(C(=O)Cc2ccccc2)C(=O)/C1=C\c1ccco1 | > 100 |  | > 100 µM (inactive) | > 100 µM (inactive) |  | > 100 µM (inactive) | > 100 µM (inactive) | > 100 µM (inactive) | > 100 µM (inactive) | > 100 µM (inactive) | > 100 µM (inactive) | > 100 µM (inactive) | > 100 µM (inactive) | > 100 µM (inactive) | > 100 µM (inactive) | > 100 µM (inactive) |  |  |  | 
7 | CCOC(=O)C(CC(C)C)NC(=O)C(Cc1ccc(N(CCCl)CCCl)cc1)NC(C)=O (stereo unspecified) | 9.71 | 11.2 µM (inactive) | 0.426 µM (active) | 12.7 µM (inactive) | 2.75 µM (inactive) | 4.56 µM (inactive) | 4.24 µM (inactive) |  | 4.81 µM (inactive) | 18.7 µM (inactive) | 2.02 µM (inactive) | 8.02 µM (inactive) | 3.3 µM (inactive) | 14 µM (inactive) | 2.44 µM (inactive) | 2.45 µM (inactive) | 3.41 µM (inactive) | 2.67 µM (inactive) | 3.69 µM (inactive) | 15.8 µM (inactive)
8 | NCCSc1nc(N)c2ncn(C3OC(CO)C(O)C3O)c2n1 (stereo unspecified) | > 100 | > 100 µM (inactive) | > 100 µM (inactive) | > 100 µM (inactive) | > 100 µM (inactive) | > 100 µM (inactive) | > 100 µM (inactive) | > 100 µM (inactive) | > 100 µM (inactive) | > 100 µM (inactive) | > 100 µM (inactive) | > 100 µM (inactive) | > 100 µM (inactive) | > 100 µM (inactive) | > 100 µM (inactive) | > 100 µM (inactive) |  |  |  | 
9 | Cc1cc(C)nc(NS(=O)(=O)c2ccc(Nc3c4ccccc4nc4c(C(=O)Nc5ccc(S(=O)(=O)Nc6cc(C)on6)cc5)cccc34)cc2)n1 | > 100 | 30.4 µM (inactive) | 22.8 µM (inactive) | 24.3 µM (inactive) | 25.1 µM (inactive) | 17.7 µM (inactive) | 22.1 µM (inactive) | 27.5 µM (inactive) | 23.2 µM (inactive) | 16 µM (inactive) | 18.5 µM (inactive) | 26.4 µM (inactive) | 18.7 µM (inactive) | 20.4 µM (inactive) | 24.2 µM (inactive) |  |  |  |  | 
10 | NC1=NN(c2ccccc2)C(=O)C1C(=O)C(=O)Nc1ccc(Cl)cc1 (stereo unspecified) | > 100 | > 100 µM (inactive) | > 100 µM (inactive) | > 100 µM (inactive) | > 100 µM (inactive) | > 100 µM (inactive) | > 100 µM (inactive) | > 100 µM (inactive) | > 100 µM (inactive) | > 100 µM (inactive) | > 100 µM (inactive) | > 100 µM (inactive) | > 100 µM (inactive) | > 100 µM (inactive) | > 100 µM (inactive) | > 100 µM (inactive) |  |  |  | 
11 | CC(C)c1cccc(C(C)C)c1NC(=O)C(=O)C1CCC2=C(Sc3ccccc3N2)C1=O (stereo unspecified) | 61.7 | > 100 µM (inactive) | 74.1 µM (inactive) | 41.5 µM (inactive) | > 100 µM (inactive) | > 100 µM (inactive) | 31.6 µM (inactive) | > 100 µM (inactive) | 34.9 µM (inactive) | 48.9 µM (inactive) | 65.2 µM (inactive) | > 100 µM (inactive) | 56.2 µM (inactive) | > 100 µM (inactive) | > 100 µM (inactive) | > 100 µM (inactive) |  |  |  | 
12 | COc1ccccc1/N=N/c1c(-c2ccccc2)nn(C(=O)CC(=O)Nc2ccccc2Cl)c1-c1ccccc1 | > 100 | > 100 µM (inactive) | > 100 µM (inactive) | > 100 µM (inactive) | > 100 µM (inactive) | > 100 µM (inactive) | > 100 µM (inactive) | > 100 µM (inactive) | > 100 µM (inactive) | > 100 µM (inactive) | > 100 µM (inactive) | > 100 µM (inactive) | > 100 µM (inactive) | > 100 µM (inactive) | > 100 µM (inactive) |  |  |  |  | 
13 | CC(C)[C@@H](C)CC[C@@H](C)C1CC=C2[C@@H]3CCC4C[C@@H](O[Si](C)(C)C(C)(C)C)CC[C@]4(C)C3CC[C@@]21C (stereo partly specified) | > 100 | > 100 µM (inactive) | > 100 µM (inactive) |  | > 100 µM (inactive) | > 100 µM (inactive) |  | > 100 µM (inactive) | > 100 µM (inactive) | > 100 µM (inactive) | > 100 µM (inactive) | > 100 µM (inactive) | > 100 µM (inactive) | > 100 µM (inactive) | > 100 µM (inactive) | > 100 µM (inactive) |  |  |  | 
14 | NNC(=O)/C(NC(=O)c1ccccc1)=C(\N)c1cccc([N+](=O)[O-])c1 | > 100 | > 100 µM (inactive) | > 100 µM (inactive) | > 100 µM (inactive) | > 100 µM (inactive) | > 100 µM (inactive) | > 100 µM (inactive) | > 100 µM (inactive) | > 100 µM (inactive) | > 100 µM (inactive) | > 100 µM (inactive) | > 100 µM (inactive) | > 100 µM (inactive) | > 100 µM (inactive) | > 100 µM (inactive) | > 100 µM (inactive) |  |  |  | 
15 | N#CC1(C#N)C(C#N)(C#N)C12CCCCCC2 | 8.41 | 40.2 µM (inactive) | 3.48 µM (inactive) | 16.4 µM (inactive) | > 47.1 µM (inactive) | 16.1 µM (inactive) | 16 µM (inactive) | 22.1 µM (inactive) | 3.1 µM (inactive) | 5.01 µM (inactive) | 6.59 µM (inactive) | 18.5 µM (inactive) | 18 µM (inactive) | 16.4 µM (inactive) | 16.4 µM (inactive) | 13.2 µM (inactive) |  |  |  | 
16 | Cc1ccc(N2C(=O)C(=CN)C(=O)N(c3ccc(C)cc3)C2=O)cc1 | 62.1 | 71.9 µM (inactive) | > 100 µM (inactive) | > 100 µM (inactive) | > 100 µM (inactive) | 65.9 µM (inactive) | > 100 µM (inactive) | > 100 µM (inactive) | > 100 µM (inactive) | > 100 µM (inactive) | > 100 µM (inactive) | 53.5 µM (inactive) | > 100 µM (inactive) | > 100 µM (inactive) | 47.6 µM (inactive) | 66.8 µM (inactive) |  |  |  | 
17 | CC1=CCC2(C#N)CCC1C2O (stereo unspecified) | > 100 | > 100 µM (inactive) | > 100 µM (inactive) | > 100 µM (inactive) | > 100 µM (inactive) | > 100 µM (inactive) |  | > 100 µM (inactive) | > 100 µM (inactive) | > 100 µM (inactive) | 64.1 µM (inactive) | > 100 µM (inactive) | > 100 µM (inactive) | > 100 µM (inactive) | > 100 µM (inactive) | > 100 µM (inactive) |  |  |  | 
